From US11046962B2, “Lux expression in cells and methods of use” (490 BioTech, Inc., priority 2019, dated 2021)

Assays:
[1] = test system: iPSC-derived cardiomyocytes (CMs); assay: Doxorubicin exposure of cardiomyocytes differentiated from tet-luxCDABEF/tTA iPSCs, autobioluminescence imaging; assay type: cell-based; conditions: Homo sapiens, Cardiomyocyte, 18 hours exposure prior to imaging, read-out: estimated EC50
Protocol: FIG. 16. Human induced pluripotent stem cells (iPSCs) bearing genomically integrated polycistronic lux operon (luxCDABEF) under control of the tetracycline responsive promoter (tet-luxCDABEF) and a separately integrated CBA-driven transactivator (tTA) were differentiated into cardiomyocytes (CMs). After maturation for approximately 1.5 weeks, the CMs were subjected to doxorubicin exposure. CMs were exposed to doxorubicin at the indicated range of concentrations for 18 hours prior to imaging.

[2] = test system: CM-luxAB/CDEF cardiomyocytes; assay: Continuous cardiotoxicity monitoring with CM-luxAB/CDEF cardiomyocytes over 30 hours
[3] = test system: CM-luxAB/CDEF cardiomyocytes; assay: Cardiotoxicity reporting by CM-luxAB/CDEF line, autobioluminescent output after 24 hours; assay type: cell-based; conditions: Homo sapiens, Cardiomyocyte, 24 hours of treatment
Protocol: The autobioluminescent CM-luxAB/CDEF line was treated with a range of doxorubicin (uM) concentrations, and autobioluminescent output was measured after 24 hours of treatment.
The CM-luxAB/CDEF line was treated with a range of doxorubicin concentrations, and the autobioluminescent output was measured after twenty-four (24) hours of treatment. The percent change in average radiance (p/s/cm^2/sr) relative to control was plotted against the corresponding doxorubicin (uM) treatment.

iPSC-luxAB/CDEF cells = assay: Compound toxicity tracking in iPSC-luxAB/CDEF line by autonomous luminescent output and MTT; assay type: cell-based, Human; conditions: range of concentrations, 24 hours
Protocol: First, iPSC-luxAB/CDEF cells were seeded in a volume of medium in two separate multi-well plates. Identical platings of untransfected cells were made along with platings of medium to serve as positive and negative controls. For the first plate, the cells were subjected to increasing concentrations of the cytotoxic compound doxorubin. For the second plate, the cells were subjected to increasing concentrations of the cytotoxic compound rotenone. The cells were then incubated under standard growth conditions for twenty four (24) hours. After this time period, the plates was imaged for luminescent output. Bioluminescent readings were obtained using a Synergyll plate reader (BioTek).
Following this reading, the plates were subjected to viability analysis using the MTT assay according to the manufacturer's instructions. MTT assay values were obtained as absorbance values at 570 nm using a Synergyll plate reader (BioTek) and reported as percentage of absorbance relative to untreated control cells. For all measurements, the background absorbance values derived from the medium only controls were subtracted to provide background corrected averages. Absorbance values from each treatment level were averaged, and the average values for each of the plates were used to determine standard errors of the mean for each assay.

COc1cccc2c1C(=O)c1c(O)c3c(c(O)c1C2=O)C[C@@](O)(C(=O)CO)C[C@@H]3O[C@H]1C[C@H](N)[C@H](O)[C@H](C)O1 [doxorubicin]
EC50 [1]: 410 to 740 nM | time of exposure at which the IC50 stabilizes ([2]; kinetic IC50 values over time course, measured every 10 minutes): ~30 h | autobioluminescent output with increasing concentrations ([2]; real time monitoring, 25 hours after addition): decreasing autobioluminescent output | IC50 [3]: 290 nM | change of autonomous luminescent signal output indicative of cellular viability (iPSC-luxAB/CDEF cells): dose dependent changes
